For orientation: half-life means how long it takes for the measured level to halve. One may read the pKa as the pH at which an ionisable group is half protonated.

The values below come from paper PMC3098207 (Malaria Journal, 2011).

Like-named read-outs stand apart in the source and are kept apart here.

Series [1] in a line: Population pharmacokinetics of oral AS and its metabolite DHA in pregnant and non-pregnant women (NONMEM parent-metabolite model). The format is in vivo, human.
Text: Women presenting for prenatal care at the clinic were screened for study eligibility if they were between 18 and 40 years of age and at less than 22 weeks gestation, determined by last menstrual period. Women confirmed by ultrasound to be between 8 to 21 weeks gestation (inclusive) were invited to be participants in the study. Women were asked to return between 22 to 26 weeks gestation for screening and enrollment; women not enrolled at 22 to 26 weeks were screened again at 32 to 36 weeks gestation. A cohort of non-pregnant female controls was also enrolled. At the time of enrollment, both the pregnant and non-pregnant subjects had asymptomatic Plasmodium falciparum parasitaemia, with a parasite density between 200 and 300,000 parasite/μL, were HIV seronegative, and were without anaemia (haematocrit >30%) or other major medical problems (e.g. chronic hypertension, diabetes, etc.). Plasmodium falciparum parasite density was assessed though Giemsa staining of thick and thin blood films; slide-positive infections were later PCR-confirmed using DNA extracted from dried blood spots [8].
Blood sampling schedule and sample handling were uniformly applied for pregnant, postpartum, and control subjects. Blood samples were collected in pre-chilled tubes containing potassium oxalate/sodium fluoride. Following collection, tubes were placed on wet ice; within 5 minutes of collection, samples were centrifuged. Immediately following centrifugation, plasma was removed from the cells and transferred into cryovials. The plasma samples were transferred to liquid nitrogen until they could be frozen at or below -80°C in a laboratory freezer; samples were later shipped on dry ice to the Clinical Pharmacokinetics Laboratory at the College of Pharmacy, University of Iowa, where they were stored at -80°C until drug analysis was performed.
The reconstituted extracts were chromatographed isocratically. Mass spectroscopy in positive ion mode was used to detect and quantify the compounds.
Nonlinear mixed effects model building was conducted using NONMEM software version 7 (ICON Development Solutions, Ellicott City, MD) [10] implemented on a Windows XP operating system (Microsoft Corporation, Seattle, WA) with a G95 Fortran compiler (Free Software Foundation, Boston, MA). Monte Carlo importance sampling expectation maximization with interaction (IMP INTER) estimation method was used to fit models. Pdx-Pop 4.0 (ICON Development Solutions, Ellicott City, MD) and Xpose version 4.1.0 (Uppsala University, Uppsala, Sweden) [11] were used in processing NONMEM 7 output. Plots were generated with TIBCO Spotfire S+ version 8.1 (TIBCO Software Inc., Palo Alto, CA) and R version 2.10.0 (Free Software Foundation, Boston, MA).
Simultaneous models were implemented using ADVAN 5.
The conditions of series [2]: weak acid; cited from earlier work.
The conditions of series [3]: free acid form of AS; cited from earlier work.
Details of series [4]: method as in McGready et al 5. Conditions: pregnant women (2nd or 3rd trimester), adjusted for median weight 50 kg, ref McGready et al 5, cited from earlier work.
Details of series [5]: method as in Teja-Isavadharm et al 30. Conditions: oral AS, non-pregnant patients with falciparum malaria, non-compartmental, range 0.70 - 2.70 L/kg; ref Teja-Isavadharm et al 30; cited from earlier work.
Details of series [6]: method as in Newton et al 31. As to conditions: oral AS, acute falciparum malaria patients, 95% CI 1.02 - 1.64; ref Newton et al 31; cited from earlier work.
The mark [7] stands for this setting: interindividual variability, final model.

On to `C[C@H]1[C@H](OC(=O)CCC(=O)O)O[C@@H]2O[C@@]3(C)CC[C@H]4[C@H](C)CC[C@@H]1[C@@]24OO3` [AS, artesunate], for which, in series [1] (female, human, in vivo), the “IIV - V2/F, variance (%CV), estimate” value is 0.604 (77.7) and the “IIV - V2/F, variance, bootstrap mean (95% CI)” value is reported as 0.568 (0.253-0.942). The half-life in series [1] (female, human, in vivo, po, 200 mg, AS elimination half-life) is roughly 9.1 min. In series [1] (human, in vivo, po, 200 mg), the “CL/F apparent clearance of AS, bootstrap mean (95% CI)” value is 904 (788-1045) L/h and the “CL/F: apparent clearance of AS, estimate” value is on record as 895 L/h. In addition, in series [2], the pKa was 4.6. Besides, the “Solubility of the free acid form” value in series [3] was 168.2 µg/mL.
For `C[C@H]1[C@@H](O)O[C@@H]2O[C@@]3(C)CC[C@H]4[C@H](C)CC[C@@H]1[C@@]24OO3` [DHA, dihydroartemisinin], the “RV - variance (residual variability), bootstrap mean (95% CI)” value in series [1] (additive model for log-transformed plasma concentrations, 1000 bootstrap runs) is 0.174 (0.129-0.226). Further, the “RV - variance (residual variability), estimate” value in series [1] (additive model for log-transformed plasma concentrations, final model) is listed as 0.174. Also, in series [1] (after 200 mg oral AS, 1000 bootstrap runs, value without the pregnancy covariate (non-pregnant)), the “CLM/F apparent clearance of DHA, bootstrap mean (95% CI)” value is reported as 64.2 (55.1-75.2) L/h. In addition, the “DHA volume of distribution adjusted for the median weight of the pregnancy and control groups” value in series [1] (after 200 mg oral AS, current analysis) is 1.58 L/kg. Also, the “CLM/F: apparent clearance of DHA, estimate” value in series [1] (after 200 mg oral AS, final model NONMEM estimate, value without the pregnancy covariate (non-pregnant)) is given as 64.0 L/h. Further, the Vd/F in series [1] (female, human, plasma, po, 200 mg, after 200 mg oral AS, 1000 bootstrap runs, read-out: V3/F apparent volume of distribution of DHA, bootstrap mean (95% CI)) is 92.1 L; in series [1] (female, human, plasma, po, 200 mg, after 200 mg oral AS, final model NONMEM estimate, read-out: V3/F: apparent volume of distribution of DHA, estimate), 91.4 L. For the same molecule, the half-life is 59 min in series [1] (female, human, plasma, po, 200 mg, after 200 mg oral AS, non-pregnant, read-out: DHA elimination half-life, non-pregnant subjects) and 45 min in series [1] (female, human, plasma, po, 200 mg, after 200 mg oral AS, pregnant, read-out: DHA elimination half-life, pregnant subjects). Moreover, in series [1] (interindividual variability, 1000 bootstrap runs), the “IIV - CLM/F, variance, bootstrap mean (95% CI)” value was 0.0711 (0.031-0.113). Also, the “IIV - CLM/F, variance (%CV), estimate” value in series [1] (setting [7]) is reported as 0.0802 (28.3). Besides, the “IIV - V3/F, variance (%CV), estimate” value in series [1] (setting [7]) is given as 0.0790 (28.1). In addition, the “PREG on CLM/F, bootstrap mean (95% CI)” value in series [1] (pregnant vs non-pregnant women, 1000 bootstrap runs) was 0.427 (0.197-0.723). The “PREG on CLM/F: factor of proportional increase in CLM/F associated with pregnancy, estimate” value in series [1] (pregnant vs non-pregnant women, final model NONMEM estimate) was 0.423. In addition, the “Pregnancy-associated trend towards increased DHA volume of distribution” value in series [1] (pregnant vs non-pregnant, significant (p < 0.05) only in first forward addition step, not retained in final model) is “approximately 37%”. Also, the “DHA clearance in pregnant patients, estimate of the present analysis” value in series [1] (pregnant, after 200 mg oral AS) is listed as 91 L/h. Further, the “Oral DHA clearance” value in series [4] (oral AS 4 mg/kg/day for three days with atovaquone and proguanil, 95% CI 60 - 117 L/h) is 88.5 L/h. Moreover, the “DHA volume of distribution” value in series [4] (oral AS 4 mg/kg/day, 95% CI 57 - 406 L) is 231.5 L; in series [5], 1.33 L/kg; in series [6] it was 1.33 L/kg.
